The conditions of this data set: 13-membered ring.

The structures appear in SMILES notation. Like-named read-outs stand apart in the source and are kept apart here.

On to `Cc1cccc(C)c1-c1nc2nc(c1C)OCCNC(=O)c1cccc(c1)S(=O)(=O)N2`, for which, for the setting “from Cc1cccc(C)c1-c1nc(NS(=O)(=O)c2cccc(C(=O)O)c2)nc(OCCN)c1C, amide bond, HATU/DIEA, DMF, 50.7 mM, 25.0 °C”, the ring closure, yield after HPLC was determined as 23%.
For the compound `Cc1cccc(C)c1-c1cc2nc(n1)NS(=O)(=O)c1cccc(c1)C(=O)N1Cc3cc(C(C)(C)C)ccc3[C@H](O2)[C@H]1CC(C)C`, the ring closure, yield after HPLC (from Cc1cccc(C)c1-c1cc(O[C@H]2c3ccc(C(C)(C)C)cc3CN[C@@H]2CC(C)C)nc(NS(=O)(=O)c2cccc(C(=O)O)c2)n1, amide bond, HATU/NaOtBu, THF/DMF, 80.1 mM, 25.0 °C, 3 steps) was 27%.
On to `Cc1cccc(C)c1-c1cc2nc(n1)NS(=O)(=O)c1cccc(c1)C(=O)O[C@H]1c3ccc(C(C)(C)C)cc3CN2[C@@H]1CC(C)C`, for which, where the note is “from Cc1cccc(C)c1-c1cc(N2Cc3cc(C(C)(C)C)ccc3[C@H](O)[C@H]2CC(C)C)nc(NS(=O)(=O)c2cccc(C(=O)O)c2)n1, ester bond, HATU/NaOtBu, THF/DMF, 25.0 °C, 3 steps”, the ring closure, yield after HPLC worked out at 4%.
For the compound `COc1c2nc(nc1-c1c(C)cccc1C)NS(=O)(=O)c1cccc(c1)C(=O)N(Cc1cncc(N(C)C3CCC3)n1)[C@H](CC(C)(C)C)CC2`, the ring closure, yield after HPLC (from COc1c(CC[C@@H](CC(C)(C)C)NCc2cncc(N(C)C3CCC3)n2)nc(NS(=O)(=O)c2cccc(C(=O)O)c2)nc1-c1c(C)cccc1C, amide bond, CDMT/NMM, DMF, 13.3 mM, 72.5 h) came to 33%.
Consider `Cc1cccc(C)c1-c1cc2nc(n1)NS(=O)(=O)c1cccc(c1)C(=O)N1Cc3cc(C(C)(C)C)ccc3[C@@H](O2)[C@H]1CC(C)C`, for which the ring closure, yield after HPLC (from Cc1cccc(C)c1-c1cc(O[C@@H]2c3ccc(C(C)(C)C)cc3CN[C@@H]2CC(C)C)nc(NS(=O)(=O)c2cccc(C(=O)O)c2)n1, amide bond, HATU/NaOtBu, THF/DMF, 25.0 °C, 3 steps) was 1%.
Under “from COC(=O)C1CC2(CC(N[C@@H](CCc3cc(-c4c(C)cccc4C)nc(NS(=O)(=O)c4cccc(C(=O)O)c4)n3)CC(C)(C)C)C2)C1, amide bond, CDMT/NMM, DMF, 48.6 mM, 18.0 h”, `COC(=O)C1CC2(C1)CC(N1C(=O)c3cccc(c3)S(=O)(=O)Nc3nc(cc(-c4c(C)cccc4C)n3)CC[C@H]1CC(C)(C)C)C2` (stereo partly drawn) gave a ring closure, yield after HPLC of 80%.

The values are drawn from patent US12612416B2, “Modulators of cystic fibrosis transmembrane conductance regulator” (VERTEX PHARMACEUTICALS INCORPORATED, priority 2020, dated 2026).
